Results as given in PMC5216056 (Nature Communications, 2017).
Where two headings read alike, the source gives them in different places.

Tests used:
[1] = biological target: T1, hGPR55 (Homo sapiens, UniProt Q9Y2T6); assay: cell-based
T1 construct: host or cells: CHO-K1 (PathHunter hGPR55_bgal)

[2] = biological target: T2, Rat recombinant TRPV4 (Rattus norvegicus, UniProt Q9ERZ8); assay: cell-based; assay type: cell-based; conditions: for IC50: vs 4αPDD 1μM, read-out: TRPV4 IC50 for desensitization
T2 construct: expressed in transfected cells; host or cells: HEK293 (TRPV4-HEK-293, gift from HB Bradshaw, Indiana University)
T2 sequence (Q9ERZ8 whole entry): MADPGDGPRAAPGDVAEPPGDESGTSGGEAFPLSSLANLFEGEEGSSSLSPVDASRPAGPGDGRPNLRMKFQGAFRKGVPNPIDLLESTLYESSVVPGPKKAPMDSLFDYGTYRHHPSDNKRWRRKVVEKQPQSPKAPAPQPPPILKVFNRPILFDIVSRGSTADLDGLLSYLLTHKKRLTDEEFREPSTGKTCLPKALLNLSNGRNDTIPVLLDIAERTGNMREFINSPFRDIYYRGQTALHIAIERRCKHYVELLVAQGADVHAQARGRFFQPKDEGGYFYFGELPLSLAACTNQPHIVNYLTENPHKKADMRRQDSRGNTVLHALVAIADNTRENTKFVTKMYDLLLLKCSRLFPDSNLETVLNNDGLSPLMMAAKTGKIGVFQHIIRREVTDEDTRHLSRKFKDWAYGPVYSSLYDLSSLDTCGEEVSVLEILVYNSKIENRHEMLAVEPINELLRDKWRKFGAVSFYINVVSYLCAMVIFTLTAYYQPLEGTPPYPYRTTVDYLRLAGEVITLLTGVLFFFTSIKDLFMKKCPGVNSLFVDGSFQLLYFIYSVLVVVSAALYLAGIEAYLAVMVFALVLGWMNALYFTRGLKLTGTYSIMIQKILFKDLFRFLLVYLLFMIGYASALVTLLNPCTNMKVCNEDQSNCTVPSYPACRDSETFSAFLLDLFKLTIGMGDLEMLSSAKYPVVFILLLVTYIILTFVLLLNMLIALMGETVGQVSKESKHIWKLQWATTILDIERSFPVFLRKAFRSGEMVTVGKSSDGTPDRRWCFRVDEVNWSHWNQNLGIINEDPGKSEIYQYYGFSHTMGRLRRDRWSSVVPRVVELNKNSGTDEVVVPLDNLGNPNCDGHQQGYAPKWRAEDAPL

[3] = biological target: T3, A1 (h) (Homo sapiens, UniProt P30542); assay: CEREP panel; assay type: binding; conditions: for % inhibition A1 (h): 10 µM
T3 construct: CEREP
T3 sequence (P30542 1-326): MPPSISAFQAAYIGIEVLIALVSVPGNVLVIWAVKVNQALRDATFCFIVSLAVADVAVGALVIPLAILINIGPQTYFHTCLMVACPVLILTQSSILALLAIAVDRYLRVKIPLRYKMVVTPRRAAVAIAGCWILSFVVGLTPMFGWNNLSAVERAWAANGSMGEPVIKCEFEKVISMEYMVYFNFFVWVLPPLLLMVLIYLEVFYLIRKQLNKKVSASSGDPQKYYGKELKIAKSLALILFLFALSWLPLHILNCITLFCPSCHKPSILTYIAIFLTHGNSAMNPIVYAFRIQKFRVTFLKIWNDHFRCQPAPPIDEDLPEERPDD

[4] = biological target: T4, A3 (h) (Homo sapiens, UniProt P0DMS8); assay: CEREP panel; assay type: binding; conditions: for % inhibition A3 (h): 10 µM
T4 construct: CEREP
T4 sequence (P0DMS8 1-318): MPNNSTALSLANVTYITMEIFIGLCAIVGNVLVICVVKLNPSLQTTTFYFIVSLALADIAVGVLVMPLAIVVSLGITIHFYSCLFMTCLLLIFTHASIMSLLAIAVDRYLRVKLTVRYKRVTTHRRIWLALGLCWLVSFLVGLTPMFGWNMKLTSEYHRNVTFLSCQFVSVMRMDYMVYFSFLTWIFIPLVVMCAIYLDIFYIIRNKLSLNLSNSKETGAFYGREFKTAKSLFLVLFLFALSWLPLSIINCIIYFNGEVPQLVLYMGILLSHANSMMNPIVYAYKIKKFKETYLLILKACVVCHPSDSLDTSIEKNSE

[5] = biological target: T5, AT1 (h) (Homo sapiens, UniProt P30556); assay: CEREP panel; assay type: binding; conditions: for % inhibition AT1 (h): 10 µM
T5 construct: CEREP
T5 sequence (P30556 1-359): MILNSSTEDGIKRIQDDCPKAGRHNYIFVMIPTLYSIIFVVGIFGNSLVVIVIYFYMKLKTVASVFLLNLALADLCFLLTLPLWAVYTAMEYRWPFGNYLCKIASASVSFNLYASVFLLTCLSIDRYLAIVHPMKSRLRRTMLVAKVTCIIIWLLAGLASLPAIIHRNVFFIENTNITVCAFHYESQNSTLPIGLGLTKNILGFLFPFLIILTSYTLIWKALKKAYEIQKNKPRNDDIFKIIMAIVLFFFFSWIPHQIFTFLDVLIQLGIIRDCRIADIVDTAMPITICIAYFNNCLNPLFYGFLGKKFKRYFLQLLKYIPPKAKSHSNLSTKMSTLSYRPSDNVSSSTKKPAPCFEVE

[6] = biological target: T6, hCB1R (Homo sapiens, UniProt P21554); assay: cell-based; assay type: cell-based; conditions: for Emax: read-out: Emax ± SEM pERK hCB1R
T6 construct: host or cells: CHO
T6 sequence (P21554 whole entry): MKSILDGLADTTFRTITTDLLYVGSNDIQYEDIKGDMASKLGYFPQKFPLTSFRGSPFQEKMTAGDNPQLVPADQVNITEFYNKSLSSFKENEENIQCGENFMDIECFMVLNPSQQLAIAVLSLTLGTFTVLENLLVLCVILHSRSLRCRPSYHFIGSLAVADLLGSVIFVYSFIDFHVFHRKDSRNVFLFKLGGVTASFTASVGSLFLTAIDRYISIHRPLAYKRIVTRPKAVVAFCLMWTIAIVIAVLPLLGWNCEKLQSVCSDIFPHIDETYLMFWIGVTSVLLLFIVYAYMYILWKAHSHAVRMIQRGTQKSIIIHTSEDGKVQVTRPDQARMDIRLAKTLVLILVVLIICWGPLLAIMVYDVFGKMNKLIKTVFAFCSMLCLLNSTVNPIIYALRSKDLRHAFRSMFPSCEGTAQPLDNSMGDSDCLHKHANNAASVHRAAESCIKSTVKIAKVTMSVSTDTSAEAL

[7] = tested on: AEA cellular uptake in HMC-1 cells; assay: cells; assay type: cell-based, human
[8] = biological target: T7, Human recombinant TRPV1 (Homo sapiens, UniProt Q8NER1); assay: cell-based; assay type: cell-based
T7 construct: expressed in transfected cells; host or cells: HEK293 (TRPV1-HEK-293, gift from John Davis, GlaxoSmithKline)
T7 sequence (Q8NER1 whole entry): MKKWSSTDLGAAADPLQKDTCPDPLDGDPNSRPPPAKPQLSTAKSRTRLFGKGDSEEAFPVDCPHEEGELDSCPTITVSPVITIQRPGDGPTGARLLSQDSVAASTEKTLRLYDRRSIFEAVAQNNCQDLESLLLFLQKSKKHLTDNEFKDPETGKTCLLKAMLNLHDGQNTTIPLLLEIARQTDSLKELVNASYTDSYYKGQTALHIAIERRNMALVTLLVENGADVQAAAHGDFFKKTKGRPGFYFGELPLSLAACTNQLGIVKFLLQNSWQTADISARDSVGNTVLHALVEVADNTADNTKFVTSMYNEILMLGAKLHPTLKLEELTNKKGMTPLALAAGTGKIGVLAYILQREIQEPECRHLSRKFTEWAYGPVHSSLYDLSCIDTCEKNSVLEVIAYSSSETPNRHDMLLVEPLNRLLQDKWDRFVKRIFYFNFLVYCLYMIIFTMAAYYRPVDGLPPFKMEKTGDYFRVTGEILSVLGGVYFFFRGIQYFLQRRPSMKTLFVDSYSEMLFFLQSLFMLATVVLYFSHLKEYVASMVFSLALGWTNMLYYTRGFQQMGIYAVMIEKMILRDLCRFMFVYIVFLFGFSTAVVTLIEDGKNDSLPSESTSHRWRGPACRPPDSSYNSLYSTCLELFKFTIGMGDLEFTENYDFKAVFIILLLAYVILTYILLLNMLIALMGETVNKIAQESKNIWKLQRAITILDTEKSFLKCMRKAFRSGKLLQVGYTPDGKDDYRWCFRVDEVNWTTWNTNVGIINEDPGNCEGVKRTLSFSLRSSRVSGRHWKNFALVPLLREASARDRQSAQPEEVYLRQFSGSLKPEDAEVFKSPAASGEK

[9] = tested on: Na+ channel (site 2); assay type: binding; conditions: 10 µM
[10] = biological target: T8, norepinephrine transporter (h) (Homo sapiens, UniProt P23975); assay: biochemical; assay type: binding
T8 construct: CEREP (contract assay)
T8 sequence (P23975 whole entry): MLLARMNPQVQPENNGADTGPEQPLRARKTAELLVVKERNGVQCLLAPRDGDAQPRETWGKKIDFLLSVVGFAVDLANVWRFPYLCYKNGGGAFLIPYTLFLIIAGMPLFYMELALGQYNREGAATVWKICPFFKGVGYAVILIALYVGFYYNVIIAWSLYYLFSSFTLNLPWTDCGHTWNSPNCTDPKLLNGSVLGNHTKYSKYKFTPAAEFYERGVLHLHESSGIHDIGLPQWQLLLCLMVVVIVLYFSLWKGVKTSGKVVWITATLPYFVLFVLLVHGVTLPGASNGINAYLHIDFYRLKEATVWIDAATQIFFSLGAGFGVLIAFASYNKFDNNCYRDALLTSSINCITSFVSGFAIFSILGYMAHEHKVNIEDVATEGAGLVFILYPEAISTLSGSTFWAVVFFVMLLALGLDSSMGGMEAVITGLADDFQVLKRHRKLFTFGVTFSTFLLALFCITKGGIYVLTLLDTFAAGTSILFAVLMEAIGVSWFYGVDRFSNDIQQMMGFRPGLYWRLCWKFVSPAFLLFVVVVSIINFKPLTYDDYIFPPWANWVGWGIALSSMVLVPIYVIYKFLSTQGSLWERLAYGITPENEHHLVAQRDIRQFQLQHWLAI

[11] = tested on: PCP; assay type: binding; conditions: 10 µM
[12] = biological target: T9, PPARα (h) (Homo sapiens, UniProt Q07869); assay: CEREP panel; assay type: binding
T9 construct: CEREP (contract assay)
T9 sequence (Q07869 1-468): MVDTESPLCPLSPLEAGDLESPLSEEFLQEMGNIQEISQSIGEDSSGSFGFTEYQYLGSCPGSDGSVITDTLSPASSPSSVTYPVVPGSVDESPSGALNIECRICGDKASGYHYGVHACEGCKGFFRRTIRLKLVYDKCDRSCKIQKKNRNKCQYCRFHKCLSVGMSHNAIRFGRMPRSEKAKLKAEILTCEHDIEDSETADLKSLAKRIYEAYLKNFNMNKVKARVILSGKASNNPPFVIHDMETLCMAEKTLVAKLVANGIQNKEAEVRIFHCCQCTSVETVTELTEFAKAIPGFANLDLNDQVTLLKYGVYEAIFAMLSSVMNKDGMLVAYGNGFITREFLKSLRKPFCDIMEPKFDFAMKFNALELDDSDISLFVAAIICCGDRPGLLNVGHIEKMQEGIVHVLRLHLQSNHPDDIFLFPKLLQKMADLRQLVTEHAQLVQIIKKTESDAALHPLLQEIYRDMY

[13] = biological target: hCB2R (Homo sapiens, UniProt P34972); assay: cell-based; assay type: cell-based; set-up: expressed in transfected cells; host or cells: Flp-In-293 (Invitrogen #R750-07), pcDNA5/FRT
Sequence of hCB2R (P34972 whole entry): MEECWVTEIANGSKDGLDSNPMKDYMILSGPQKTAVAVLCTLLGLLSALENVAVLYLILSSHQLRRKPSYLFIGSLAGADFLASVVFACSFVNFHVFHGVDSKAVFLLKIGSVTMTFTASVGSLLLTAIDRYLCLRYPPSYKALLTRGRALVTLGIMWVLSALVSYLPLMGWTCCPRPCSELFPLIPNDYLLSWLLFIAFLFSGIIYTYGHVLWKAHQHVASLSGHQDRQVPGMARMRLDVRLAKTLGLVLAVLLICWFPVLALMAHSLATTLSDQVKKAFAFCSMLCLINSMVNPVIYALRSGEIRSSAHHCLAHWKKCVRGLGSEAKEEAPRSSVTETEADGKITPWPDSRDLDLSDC

[14] = tested on: Ca2+ channel (L, diltiazem site); assay: CEREP panel; assay type: binding; conditions: 10 µM
[15] = read-out: AEA reuptake IC50 (95% CI) HMC-1 cells, FAAH-deficient cells

T1 sequence (Q9Y2T6 whole entry): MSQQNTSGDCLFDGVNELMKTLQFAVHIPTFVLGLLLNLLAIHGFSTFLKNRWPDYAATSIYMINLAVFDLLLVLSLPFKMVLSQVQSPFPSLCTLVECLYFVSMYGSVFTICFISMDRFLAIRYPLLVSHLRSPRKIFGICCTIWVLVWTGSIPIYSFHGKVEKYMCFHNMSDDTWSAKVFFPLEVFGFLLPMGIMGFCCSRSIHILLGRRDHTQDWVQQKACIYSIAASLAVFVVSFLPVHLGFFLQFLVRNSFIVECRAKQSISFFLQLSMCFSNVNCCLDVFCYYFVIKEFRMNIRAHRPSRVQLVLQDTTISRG

Row | Compound | TRPV4 Efficacy (% ionomycin 4μM) [2] | % inhibition A1 (h) [3] | % inhibition A3 (h) [4] | % inhibition AT1 (h) [5] | Emax [6] | TRPV1 Efficacy (% ionomycin 4μM) [8] | IC50 [2] | % inhibition Na+ channel (site 2) [9] | % inhibition PCP [11] | Emax ± SEM pERK hCB1R [6] | IC50 [7, 15] | other results
1 | Cc1c(C(=O)NN2CCCCC2)nn(-c2ccc(Cl)cc2Cl)c1-c1ccc(I)cc1 [AM251] | < 10% | 27% | 93% | 36% |  |  |  |  |  |  |  | GPR55 pEC50 (± SEM) [1]: 5.49±0.09; GPR55 Emax ± SEM (%) or % effect at 10 µM ([1]; β-arrestin recruitment): 82±9%
2 | CCCCCCC(C)(C)c1cc(OC)c([C@@H]2C=C(CO)[C@@H]3C[C@H]2C3(C)C)c(OC)c1 [HU308] | < 10% |  |  |  | 18 ± 4% | < 10% | > 100 µM | 30% | -9% |  |  | EC50 [6]: > 100 µM; EC50 [1]: > 10 µM; Emax at 10 µM ([1]; read-out: GPR55 Emax ± SEM (%) or % effect at 10 µM): -6 ± 5%; IC50 ([7]; Homo sapiens, HMC1, read-out: AEA reuptake IC50 (95% CI) HMC-1 cells): > 5 µM; IC50 ([8]; TRPV1 IC50 for antagonism or desensitization): 69 ± 5.7 µM; inhibition at 10 µM ([3]; read-out: % inhibition A1 (h)): 5%; inhibition at 10 µM ([4]; read-out: % inhibition A3 (h)): -1%; inhibition at 10 µM ([5]; read-out: % inhibition AT1 (h)): 53%; inhibition at 10 µM ([10]; read-out: % inhibition norepinephrine transporter (h)): 33%; inhibition at 10 µM ([12]; read-out: % inhibition PPARα (h)): -21%; Emax ([13]; AtT20, read-out: Emax ± SEM GIRK hCB2R): 82 ± 6%
3 | SR144528 | < 10% | 4% | 72% | 33% |  | < 10% |  | 34% | -13% | -21 ± 2 | > 10 µM | % inhibition Ca2+ channel (L, diltiazem site) [14]: 10%; % inhibition norepinephrine transporter (h) ([10]; 10 µM): 29%; % inhibition PPARα (h) ([12]; 10 µM): -14%
4 | CCCCC/C=C\C/C=C\C/C=C\C/C=C\CCCC(=O)OC(CO)CO [2-AG, 2-arachidonoyl glycerol] |  |  |  |  | 111 ± 10% |  |  |  |  |  |  | Emax ([13]; AtT20; read-out: Emax ± SEM GIRK hCB2R): 100 ± 2%
5 | CN1CCCC[C@@H]1Cn1cc(C(=O)c2cc([N+](=O)[O-])ccc2I)c2ccccc21 [(R)-AM1241] | < 10% |  |  |  |  | 10.7% | 8.7 ± 0.5 µM |  |  | 78 ± 12 | > 5 µM | pEC50 ± SEM pERK hCB1R [6]: 5.66 ± 0.19; IC50 ([8]; read-out: TRPV1 IC50 for antagonism or desensitization): > 50 µM; EC50 ([8]; read-out: TRPV1 Potency EC50): > 50 µM; pEC50 ± SEM GIRK hCB2R [13]: < 5; Emax ± SEM GIRK hCB2R ([13]; normalized to CP55940): 47 ± 13%
